The values that follow come from publication PMC1616953 (Nucleic Acids Research, 2006).

This assay has as its system Ssα-fuc. The assay is described as follows: enzyme kinetics, 4-nitrophenyl substrate hydrolysis. The class given is biochemical, Saccharolobus solfataricus. As to conditions: 65°C; KM printed as identical within error for Ssα-fuc and Ssα-fuc^B.

A word on the Km: it is the concentration of substrate that gives half-maximal velocity. `C[C@@H]1O[C@@H](Oc2ccc([N+](=O)[O-])cc2)[C@@H](O)[C@H](O)[C@@H]1O` [4NP-Fuc, 4-nitrophenyl-α-L-fucoside]: the Km was determined as 28.7 ± 5 µM.
